Experimental data from patent publication US7816520B2, “5,6-diphenyl-1,2,4-triazinic dimeric derivatives and the use thereof in the form of sun-protective agents” (Pierre Fabre Dermo-Cosmetique, priority 2004, dated 2010).
“Also recorded” adds a separate entry of the source.

Tests used:
Assay type in all cases: physicochemical
[1] = Spectral characteristics: molar extinction coefficient and specific absorbance (UV spectrophotometry in ethyl acetate); details: 10 μg/ml; for Maximum molar extinction coefficient UVA / Maximum specific absorbance UVA: UVA band; for Maximum molar extinction coefficient UVB / Maximum specific absorbance UVB: UVB band; for Maximum specific absorbance UVA / Maximum specific absorbance UVB: A1cm^1%; for Wavelength of maximum molar extinction coefficient UVA / Wavelength of maximum molar extinction coefficient UVB / Wavelength of maximum specific absorbance UVA / Wavelength of maximum specific absorbance UVB: the 'at ...' part of the cell
Text: The calculation of the molar extinction coefficient (ε) is made from the Beer-Lambert law:
[formula] Wherein: • A=absorbance • I0=intensity of the incident light • I=intensity of the transmitted light • ε=molar extinction (or molar absorbance) coefficient in M^−1 cm^−1 • l=path length in cm • c=concentration in mol/l
The molar extinction coefficient can be expressed with respect to a given mass of the product. It thus makes it possible to be able to compare the coefficients of extinction between products for the same given quantity. This quantity is 1% by weight. The molar extinction coefficient thus becomes the specific absorbance (A1cm^1%).
It is expressed as follows:
[formula] Wherein: • A1cm^1%=specific absorbance • ε=molar extinction coefficient • M=molar mass
The spectral characteristics of the compounds in comparison with commercial filters at a concentration of 10 μg/ml are summarized in tables 2-1 and 2-2.
Procedure: The products are dissolved in ethyl acetate to a concentration of 10 μg/ml. The spectra are measured using a dual-beam spectrophotometer (Varian CARY 50 Scan) between 290 nm and 400 nm.

[2] = Spectral distribution in UVA and UVB, 290 nm to 400 nm; details: for Spectral distribution (UV bands absorbed): absorption spectra, FIGS. 1-3; for Absorption peaks: range from 290 nm to 400 nm
Text: The products tested are classified according to spectral distribution in UVA and UVB in a range from 290 nm to 400 nm. It is possible to differentiate them according to their spectral distribution: Products with a narrow spectrum: • Products absorbing in the range between 280 nm and 320 nm (UVB) • Products absorbing in the range between 320 nm and 400 nm (UVA) Products with a broad spectrum: • Products absorbing in UVB (280-320 nm) and UVA-II […] • Products covering UVB and UVA (280-400 nm).

[3] = Solubility study in solvents or excipients used in cosmetics; details: for Solubilities: Soluble, DMSO: solvent DMSO; for Solubilities: Soluble, Transcutol: solvent Transcutol; for Solubilities: Soluble (solvent in which the compound is soluble): value = solvent; for Solubilities: Insoluble (solvent in which the compound is insoluble): value = solvent named in the Insoluble column
[4] = Photostability in solution in a chemical solvent (Suntest CPS+); details: 25 μg deposited from methanol, absorbance vs non-irradiated control, in % (unit assumed); for Photostability at 5 MED, mean: Suntest irradiation 5 MED; for Photostability at 10 MED, mean: Suntest irradiation 10 MED
Text: A Suntest CPS+(Atlas, Linsengenicht/Altenhasslan, Germany) was used. The Suntest makes it possible to reproduce the solar spectrum and thus to carry out exposures inside at any time without weather constraints.
The radiance of the solar simulator was carefully measured with a spectroradiometer (MSS 2044, Bielefeld, Germany). UVB and UVA intensities were 0.49 mW/cm^2 and 6.32 mW/cm^2, respectively. The MED value defined by COLIPA is 5.6 J/cm^2 in total UV (22). The UV total (UVA+UVB) accounts for 14.8% of the energy delivered by the lamp (power 460 W/m^2). An irradiation dose equivalent to 1 MED corresponds to 37.83 J/cm^2 (in total spectrum) delivered by the lamp.
The Suntest test duration is calculated using the following formula: t=H/E with: • E=illumination energy in W/m^2 • H=irradiation dose in J/m^2 • t=duration of the test in s
The solutions of the compounds are prepared at a concentration of 500 μg/ml in methanol. 50 μl (25 μg) of each solution are deposited in a crystallizer, then irradiated in the Suntest at 5, 10 and/or 20 MED. A non-irradiated control is prepared (deposit of 50 μl of solution and addition of 2.450 ml of methanol). The solvent evaporates during irradiation and the products are taken up in 2.5 ml of methanol. After irradiation, the absorbance of each solution is measured with the UV-visible spectrophotometer (Varian CARY 50 Scan).

For “1,4-bis[5,6-(4,4′-(2-{2-[2-(2-methoxy-ethoxy)-ethoxy]-ethoxy}-ethoxy)-)-diphenyl-1,2,4-triazin-3-yl]benzene [WP41]”, the “Maximum molar extinction coefficient UVA” value [1] was 91400 M⁻¹ cm⁻¹, the “Maximum molar extinction coefficient UVB” value [1] was 72000 M⁻¹ cm⁻¹ and the “Maximum specific absorbance UVA” value [1] was 669. For the same molecule, the “Maximum specific absorbance UVB” value [1] was 527, the “Wavelength of maximum molar extinction coefficient UVA” value [1] was “at 330 nm” and the “Wavelength of maximum molar extinction coefficient UVB” value [1] was “at 305 nm”. The “Wavelength of maximum specific absorbance UVA” value [1] was “at 330 nm”, the “Wavelength of maximum specific absorbance UVB” value [1] was “at 305 nm” and the “Spectral distribution (UV bands absorbed)” value (“Spectral distribution” for short) [2] was “absorb in UVB and UVA”. For the same molecule, the “Solubilities: Soluble, DMSO” value [3] was “DMSO 2.7%”, the “Solubilities: Soluble, Transcutol” value [3] was “Transcutol 0.1%” and the “Solubilities: Soluble (solvent in which the compound is soluble)” value [3] was “DMC and AcOEt (PS) and MeOH (PS)”. For the same molecule, the “Solubilities: Insoluble (solvent in which the compound is insoluble)” value (“Solubilities: Insoluble” for short) [3] was “EtOH and Hexane and Myritol”.
In the case of `c1ccc(-c2nnc(-c3ccc(-c4nnc(-c5ccccc5)c(-c5ccccc5)n4)cc3)nc2-c2ccccc2)cc1` [WP30, 1,4-bis(5,6-diphenyl-1,2,4-triazin-3-yl)benzene], the “Maximum molar extinction coefficient UVA” value [1] is reported as 50200 M⁻¹ cm⁻¹, the “Maximum specific absorbance UVA” value [1] is reported as 928 and the “Wavelength of maximum molar extinction coefficient UVA” value [1] is reported as “at 325 nm”. For the same molecule, the “Wavelength of maximum specific absorbance UVA” value [1] was “at 325 nm”, the “Spectral distribution” value [2] was “absorb in UVB and UVA” and the Absorption peaks [2] was 325 nm. The “Solubilities: Soluble (solvent in which the compound is soluble)” value [3] was “DMSO or hot DMF; also recorded: Ethyl acetate (PS)”, the “Solubilities: Insoluble” value [3] was “Acetonitrile and Benzene and Myritol and Transcutol and Water and MeOH and CHCl3 and Acetone” and the “Photostability at 5 MED, mean” value [4] was 77.75. The “Photostability at 10 MED, mean” value [4] was 56.12.
In the case of `Oc1ccc(-c2nnc(-c3ccc(-c4nnc(-c5ccc(O)cc5)c(-c5ccc(O)cc5)n4)cc3)nc2-c2ccc(O)cc2)cc1` [WP35, 1,4-bis[5,6-(4,4′-dihydroxy)-diphenyl-1,2,4-triazin-3-yl]benzene], the “Maximum molar extinction coefficient UVA” value [1] is reported as 27800 M⁻¹ cm⁻¹, the “Maximum molar extinction coefficient UVB” value [1] is reported as 29600 M⁻¹ cm⁻¹ and the “Maximum specific absorbance UVA” value [1] is reported as 460. The “Maximum specific absorbance UVB” value [1] was 490, the “Wavelength of maximum molar extinction coefficient UVA” value [1] was “at 355 nm” and the “Wavelength of maximum molar extinction coefficient UVB” value [1] was “at 310 nm”. The “Wavelength of maximum specific absorbance UVA” value [1] was “at 355 nm”, the “Wavelength of maximum specific absorbance UVB” value [1] was “at 310 nm” and the “Spectral distribution” value [2] was “absorb in UVB and UVA”. The Absorption peaks [2] was 355 nm, the “Solubilities: Soluble, DMSO” value [3] was “DMSO 3.5%” and the “Solubilities: Soluble, Transcutol” value [3] was “Transcutol 0.5%”. For the same molecule, the “Solubilities: Insoluble” value [3] was “MeOH and CHCl3 and Ethyl acetate and Hexane and Myritol”.
In the case of `CCCCCCCCCCCCCCCCCCOc1ccc(-c2nnc(-c3ccc(-c4nnc(-c5ccc(OCCCCCCCCCCCCCCCCCC)cc5)c(-c5ccc(OCCCCCCCCCCCCCCCCCC)cc5)n4)cc3)nc2-c2ccc(OCCCCCCCCCCCCCCCCCC)cc2)cc1` [WP38, 1,4-bis[5,6-(4,4′-di-octadecyloxy)-diphenyl-1,2,4-triazin-3-yl]benzene], the “Solubilities: Soluble (solvent in which the compound is soluble)” value [3] is reported as “Benzene; also recorded: Toluene; also recorded: Myritol; also recorded: Transcutol” and the “Solubilities: Insoluble” value [3] is reported as “MeOH and DMC and AcOEt”.
In the case of `Cc1ccc(-c2nnc(-c3ccc(-c4nnc(-c5ccc(C)cc5)c(-c5ccc(C)cc5)n4)cc3)nc2-c2ccc(C)cc2)cc1` [WP39, 1,4-bis[5,6-(4,4′-dimethyl)-diphenyl-1,2,4-triazin-3-yl]benzene], the “Maximum molar extinction coefficient UVA” value [1] is reported as 48200 M⁻¹ cm⁻¹, the “Maximum specific absorbance UVA” value [1] is reported as 808 and the “Wavelength of maximum molar extinction coefficient UVA” value [1] is reported as “at 335 nm”. For the same molecule, the “Wavelength of maximum specific absorbance UVA” value [1] was “at 335 nm”, the “Spectral distribution” value [2] was “absorb in UVB and UVA” and the “Solubilities: Soluble (solvent in which the compound is soluble)” value [3] was “DMSO or hot DMF”. The “Solubilities: Insoluble” value [3] was “Water and MeOH and CHCl3 and Acetone and Acetonitrile and Benzene”.
In the case of `COc1ccc(-c2nnc(-c3ccc(-c4nnc(-c5ccc(OC)cc5)c(-c5ccc(OC)cc5)n4)cc3)nc2-c2ccc(OC)cc2)cc1` [WP40, 1,4-bis[5,6-(4,4′-dimethoxy)-diphenyl-1,2,4-triazin-3-yl]benzene], the “Solubilities: Soluble (solvent in which the compound is soluble)” value [3] is reported as “DMSO or hot DMF” and the “Solubilities: Insoluble” value [3] is reported as “Water and MeOH and CHCl3 and Acetone and Acetonitrile and Benzene”.
With `Brc1ccc(-c2nnc(-c3ccc(-c4nnc(-c5ccc(Br)cc5)c(-c5ccc(Br)cc5)n4)cc3)nc2-c2ccc(Br)cc2)cc1` [WP52, 1,4-bis[5,6-(4,4′-dibromo)-diphenyl-1,2,4-triazin-3-yl]benzene] the “Maximum molar extinction coefficient UVA” value [1] was 57300 M⁻¹ cm⁻¹, the “Maximum specific absorbance UVA” value [1] was 669 and the “Wavelength of maximum molar extinction coefficient UVA” value [1] was “at 330 nm”. The “Wavelength of maximum specific absorbance UVA” value [1] was “at 330 nm”, the “Spectral distribution” value [2] was “absorb in UVB and UVA” and the Absorption peaks [2] was 330 nm. The “Solubilities: Soluble (solvent in which the compound is soluble)” value [3] was “DMSO or hot DMF” and the “Solubilities: Insoluble” value [3] was “Water and MeOH and CHCl3 and Acetone and Acetonitrile and Benzene and Myritol and Transcutol”.
In the case of `Fc1ccc(-c2nnc(-c3ccc(-c4nnc(-c5ccc(F)cc5)c(-c5ccc(F)cc5)n4)cc3)nc2-c2ccc(F)cc2)cc1` [WP89, 1,4-bis[5,6-(4,4′-difluoro)-diphenyl-1,2,4-triazin-3-yl]benzene], the “Maximum molar extinction coefficient UVA” value [1] is reported as 47700 M⁻¹ cm⁻¹, the “Maximum specific absorbance UVA” value [1] is reported as 778 and the “Wavelength of maximum molar extinction coefficient UVA” value [1] is reported as “at 330 nm”. The “Wavelength of maximum specific absorbance UVA” value [1] was “at 330 nm”, the “Spectral distribution” value [2] was “absorb in UVB and UVA” and the Absorption peaks [2] was 330 nm. The “Solubilities: Soluble (solvent in which the compound is soluble)” value [3] was “Ethyl acetate”.
For `Clc1ccc(-c2nnc(-c3ccc(-c4nnc(-c5ccc(Cl)cc5)c(-c5ccc(Cl)cc5)n4)cc3)nc2-c2ccc(Cl)cc2)cc1` [WP100, 1,4-bis[5,6-(4,4′-dichloro)-diphenyl-1,2,4-triazin-3-yl]benzene], the “Maximum molar extinction coefficient UVA” value [1] was 43400 M⁻¹ cm⁻¹, the “Maximum specific absorbance UVA” value [1] was 640 and the “Wavelength of maximum molar extinction coefficient UVA” value [1] was “at 300 nm”. For the same molecule, the “Wavelength of maximum specific absorbance UVA” value [1] was “at 100 nm”, the “Spectral distribution” value [2] was “absorb in UVB and UVA” and the Absorption peaks [2] was 300 nm. The “Solubilities: Soluble (solvent in which the compound is soluble)” value [3] was “Hot DMSO” and the “Solubilities: Insoluble” value [3] was “DCM and Et2O and Toluene and Octanol and EtOH and Myritol and Transcutol”.
With `c1ccc(-c2nnc(-c3ccc(-c4ccc(-c5nnc(-c6ccccc6)c(-c6ccccc6)n5)cc4)cc3)nc2-c2ccccc2)cc1` [WP135] the “Maximum molar extinction coefficient UVA” value [1] was 57000 M⁻¹ cm⁻¹, the “Maximum specific absorbance UVA” value [1] was 924 and the “Wavelength of maximum molar extinction coefficient UVA” value [1] was “at 330 nm”. For the same molecule, the “Wavelength of maximum specific absorbance UVA” value [1] was “at 330 nm”, the “Spectral distribution” value [2] was “absorb in UVB and UVA” and the Absorption peaks [2] was 330 nm. For the same molecule, the “Photostability at 5 MED, mean” value [4] was 57.45 and the “Photostability at 10 MED, mean” value [4] was 33.66.
In the case of `CCCCCC[C@H](C)Oc1ccc(-c2nnc(-c3ccc(-c4nnc(-c5ccc(O[C@@H](C)CCCCCC)cc5)c(-c5ccc(O[C@@H](C)CCCCCC)cc5)n4)cc3)nc2-c2ccc(O[C@@H](C)CCCCCC)cc2)cc1` [WP149, 1,4-bis[5,6-bis(4,1-methylheptyloxyphenyl)-1,2,4-triazine-3-yl]benzene], the “Solubility (%)” value ([3]; excipient Finsol V NT ® (C12-C15 alkyl benzoate)) is reported as 4.5%, the “Solubility (%)” value ([3]; excipient Isopropyl adipate) is reported as 2% and the “Solubility (%)” value ([3]; excipient Myritol 318 ® (caprylic/capric triglycerides)) is reported as 2.5%. The “Photostability at 5 MED, mean” value [4] was 80.40 and the “Photostability at 10 MED, mean” value [4] was 38.16.
